From patent US20140322145A1, “ANTIMICROBIAL COMPOSITION” (Rohm and Haas Company, priority 2011, published 2014)

Key:
Assay type in all cases: cell-based
[1] = tested on: Escherichia coli (10536 strain); assay: 15 seconds contact-time bacterial kill assay, microtitre plate, plate counts (Examples 1 and 3); conditions: for MBC of antimicrobial alcohol: alcohol alone
Description: The efficacies of antimicrobial agents can be usefully compared by determining the Minimum Biocidal Concentration (MBC). The MBC is defined as the lowest absolute concentration of the particular active that provides complete kill (zero bacterial growth).
Antimicrobial efficacy is tested against a representative pathogenic bacterial organism, Gram negative Escherichia coli. Concentrations of actives are expressed in terms of the percentage weight/volume (% w/v) throughout Example 1.
An overnight culture of Escherichia coli (10536 strain) was prepared in 50 ml total volume of TSB broth, grown for ca. 18 hrs at 37° C. and shaken at 150 rpm. 1 ml of this overnight E. coli culture was transferred to 50 ml of fresh TSB broth and incubated at 37° C. at 150 rpm for ca. 4 hours. This culture was separated into equal volumes and centrifuged at 4000 rpm for 15 minutes, washed with sterile saline (0.85% NaCl), centrifuged once more and re-suspended in saline to give a final concentration of 0.8 OD620 equivalent to about 10^8 cells per milliliter for this particular organism. Here, OD620 indicates the absorbance of a sample in a cuvette of 1.0 cm path length at a wavelength of 620 nm. This bacterial stock was used for assaying against antimicrobial actives (in triplicate).
The following assay describes the testing of 8 materials using 6 dilutions across half of a 96-well micro titre plate (MTP). Using this approach it is possible to assay 16 actives (without replicates) with one full dilution plate, replicating this set up in two halves of the plate columns, 1-6 and 7-12.
1M solutions of the test actives were prepared in dimethylsulphoxide (DMSO).
Aliquots (270 μl) of the materials at 1.11 times the final concentration were dispensed into the wells of the MTP along one column (A1-H1). This MTP was labelled as the “Screening plate”.
In another MTP, labelled as the “Dilution plate”, 270 μl of D/E neutralising solution from DIFCO Composition was added to column 1. The composition of the neutralising solution was as follows: pancreatic digest of casein, 5.0 g/L; Yeast Extract, 2.5 g/L; Dextrose, 10 g/L, sodium thioglycollate, 1.0 g/L, sodium thiosulphate, 6.0 g/L; sodium bisulphite. 2.5 g/L; Polysorbate 80, 5.0 g/L; lecithin 7.0 g/L; bromocresol purple, 0.02 g/L with a pH in the range 7.6±0.2.
270 μl of tryptone diluent solution was added to all the remaining wells of the Dilution MTP (columns 2-6).
Bacterial stock (30 μl) was then added to the prepared 270 μl of the solution of actives in the Screening Plate and mixed, using a multichannel pipette with 8 tips to aspirate and dispense the same volume of bacterial stock in parallel to 8 wells in rows A-H. After a contact time of 15 seconds, the mixtures were quenched by transferring 30 μl volumes of the mixtures into the 270 μl DIE neutralising solution in the prepared dilution plate, using aspiration to mix. After exactly 5 minutes in the DIE neutralising solution, 30 μl volumes were transferred from column 1 to column 2 of the Dilution MTP and mixed, before transferring further 30 μl volumes from column 2 into column 3. This process was repeated serially diluting the bacteria across the plate to column 6.
30 μl volumes from each well in the Dilution MTP were transferred onto pre-labelled segment of Tryptone Soya Agar (TSA) plates starting from the lowest bacterial concentration (highest dilution, column 6) to the highest bacterial concentration (column 1). The TSA plates were allowed to stand for ca. 2 hours so that the 30 μl inocula spots could dry and the plates were then inverted and incubated overnight at 37° C. before enumerating the bacterial colonies at the labelled dilutions to determine the effects of the actives on bacterial growth.
Mean bacterial survival numbers NMBS (expressed in Log CFU/ml) are obtained by first determining the segment of the TSA plate where the number of bacterial colonies is countable. From the colony number in this segment, NMBS is calculated by the formula: […]

[2] = tested on: Escherichia coli (E. coli—ATCC #10536); assay: Automated assessment of efficacy in surfactant base (Example 4); conditions: for 15 second bactericidal efficacy in combination with thymol: at concentrations lower than their MBC in the same surfactant formulation; for MBC (minimum biocidal concentration): in 2.85% sodium cocoyl glycinate + 1.85% sodium lauroamphoacetate solution at pH 10
Description: In these examples, the efficacy of combinations of thymol and antimicrobial alcohols of the invention were tested in a surfactant cleansing formulation comprising 2.85% sodium cocoyl glycinate and 1.85% sodium lauroamphoacetate. This corresponds to a 50% in use dilution with water of a typical neat formulation containing 5.7% cocoyl glycinate and 3.7% % sodium lauroamphoacetate during hand washing. Solutions were prepared such that the concentrations of the surfactant components and test actives were 1.1 times the final desired concentration in order to allow for dilution with the bacterial inoculum in the test. The solutions were manually adjusted to pH 10.0 by dropwise addition of sodium hydroxide solution, as measured with a pH meter at ambient temperature. Solutions of the thymol and/or antimicrobial alcohols of the invention were prepared at a maximum of 24 hours before testing. The same thymol and antimicrobial alcohols were used as in Examples 1 and 3.
The efficacy of the combinations of the present invention was determined against the same bacterium as in Example 1, Escherichia coli (E. coli—ATCC #10536), at a concentration of approximately 1×10^8 bacteria per mL.
Tests were conducted using standard microtiter plate assays using an automated liquid handling system. 270 μl of the surfactant test solution was pipetted into each well of the microtitre plate (Nunc F Gamma Irradiated 96F untreated microtitre plates of clear polystyrene) and 30 μl of the bacterial suspension was then added. After exactly 15 seconds of bacterial exposure, a 30 μl volume of bacterial cells was withdrawn and transferred to 270 μl of D/E quench solution. After 5 minutes in the DIE quench, the optical density (OD) was measured for each plate in turn at two specific wavelengths (450 nm and 590 nm). These provide a dual check of antimicrobial activity, as the OD450 reading is specific for the yellow colour of DIE quench when bacterial growth is observed, whereas OD590 is specific for the initial purple colour of the DIE quench which is retained if no bacterial growth is observed. After the time zero OD measurements, plates were then incubated at 37° C. overnight (16 hours) before repeating the OD measurements. Delta OD values were calculated by subtracting […] at time=16 hours. Bacterial growth is observed as an increase in OD450 and a decrease in OD590. To identify antibacterially efficacious systems (those preventing appreciable bacterial growth after incubation), the following threshold changes in OD readings have been adopted: if (1). OD450 increases by less than 0.2 absorbance unit (AU) on incubation and (2). OD590 decreases by less than 0.35 AU on incubation. Conversely, where OD450 increases by more than 0.1 AU and OD590 decreases by more than 0.1 AU after incubation, corresponding to a colour shift from purple to yellow, the test system allows bacterial growth and is not deemed efficacious. Four replicate measurements in the same plate have been made for each test system. The number of replicate wells showing either bacterial growth or no growth is also readily assessed by eye by following the colour change. Thymol and terpineol were tested both alone and in combination for comparison purposes.
In each case, binary mixtures were assessed in the weight to weight ratio of thymol to antimicrobial alcohol of 1:2.5.

[3] = tested on: Escherichia coli (E. coli—ATCC #10536); assay: High resolution MBC synergy assay in phosphate buffer containing 35% dipropylene glycol (Example 2); conditions: complete kill in 15 seconds; other component 0
Description: In this Example, a wide range of combinations of chemicals was tested by conducting high resolution MBC assays of isocyclogeraniol in the presence of various concentrations of thymol. The materials were sourced in the same way as for Example 1. Synergy tests were conducted using standard microtiter plate assays with phosphate buffer containing 35% dipropylene glycol (DPG). […] The MBC plate was inoculated one column at a time with the test microorganism. An aliquot of the inoculated well was transferred at 15 seconds to a plate containing a neutralizing agent (D/E Neutralizing Broth), mixed and held for 5 minutes before being transferred to a growth plate containing trypticase soy broth (TSB). The TSB plate was incubated at 37° C. and read for the presence I absence of growth at 24 hours. […] This microorganism is representative of natural contaminants in many consumer and industrial applications.

[4] = Table 10, from the data in Table 9, 15 seconds

CC1CCC(CO)C(C)C1 (centres unmarked) [dihydrofloralol, (2,4-dimethylcyclohexyl)methanol]
MBC (minimum biocidal concentration) [1, 4]: 0.5 % w/v | MBC of antimicrobial alcohol ([1]; Table 11, 15 seconds): 0.5 % (w/v) | 15 second bactericidal efficacy in combination with thymol [2]: complete kill in all 4 replicates | MBC (minimum biocidal concentration) [2]: 0.5 % w/v

CC1=CCC(CO)C(C)C1 (centres unmarked) [floralol, (4,6-dimethylcyclohex-3-en-1-yl)methanol]
MBC (minimum biocidal concentration) [1, 4]: 0.3 % w/v | MBC of antimicrobial alcohol ([1]; Table 11, 15 seconds): 0.3 % (w/v) | 15 second bactericidal efficacy in combination with thymol [2]: complete kill in all 4 replicates | MBC (minimum biocidal concentration) [2]: 0.4 % w/v

CC1=CC(C)C(CO)C(C)C1 (centres unmarked) [isocyclogeraniol, (2,4,6-trimethylcyclohex-3-en-1-yl)methanol]
MBC (minimum biocidal concentration) ([1]; Table 4, lowest concentration giving zero bacterial survival after 15 seconds, upper boundaries): 0.3 % w/v | MBC of antimicrobial alcohol ([1]; Table 5, 15 seconds): 0.3 % (w/v) | MBC of component alone (MBCA, MBCB) [3]: 0.6 weight % | 15 second bactericidal efficacy in combination with thymol [2]: complete kill in all 4 replicates | MBC (minimum biocidal concentration) [2]: higher than the highest tested concentrations | MBC (minimum biocidal concentration) ([2]; listed as Isocyclogeraniol): >0.5 % w/v

Cc1ccc(C(C)C)c(O)c1 [thymol, 2-isopropyl-5-methylphenol]
MBC of thymol ([1]; Table 5, thymol alone, 15 seconds): 0.05 % (w/v) | MBC of thymol ([1]; Table 11, MBC of thymol of Example 1): 0.05 % (w/v) | MBC of component alone (MBCA, MBCB) [3]: 0.5 weight %
